In brackets after ≈: the same amount, converted by molar mass.
Columns and labels:
Assay type in all cases: functional
[1] = test system: Tetranychus urticae; test: Resistance ratio of LC50 for Tetranychus urticae HOL1 (two-spotted spider mite) harboring mitochondrial G126S and I136T Cytb mutation to LC50 for Tetranychus urticae GSS
[2] = test system: Tetranychus urticae; test: Resistance ratio of LC50 for Tetranychus urticae (two-spotted spider mite) HOL4 harboring mitochondrial G126S Cytb mutation to LC50 for Tetranychus urticae GSS
[3] = test system: Tetranychus urticae; test: Toxicity against adult Tetranychus urticae HOL2 (two-spotted spider mite) harboring mitochondrial G126S Cytb mutation in compound pretreated bean leaves assessed as mortality
[4] = test system: Tetranychus urticae; test: Resistance ratio of LC50 for bifenazate-resistant Tetranychus urticae (two-spotted spider mite) BEL1 harboring mitochondrial P262T Cytb fixed mutation to LC50 for Tetranychus urticae GSS
[5] = test system: Tetranychus urticae; test: Resistance ratio of LC50 for Tetranychus urticae HOL3 (two-spotted spider mite) harboring mitochondrial P262T Cytb heteroplasmic mutation to LC50 for Tetranychus urticae GSS
[6] = test system: Tetranychus urticae; test: Toxicity against adult Tetranychus urticae WI (two-spotted spider mite) in compound pretreated bean leaves assessed as mortality
[7] = test system: Tetranychus urticae; test: Resistance ratio of LC50 for bifenazate-resistant Tetranychus urticae BR-VL (two-spotted spider mite) harboring mitochondrial G126S, S141F and D161G Cytb mutation to LC50 for Tetranychus urticae GSS
[8] = test system: Tetranychus urticae; test: Resistance ratio of LC50 for Tetranychus urticae MR-VL (two-spotted spider mite) to LC50 for Tetranychus urticae GSS
[9] = test system: Tetranychus urticae; test: Toxicity against adult Tetranychus urticae HOL1 (two-spotted spider mite) harboring mitochondrial G126S and I136T Cytb mutation in compound pretreated bean leaves assessed as mortality
[10] = test system: Tetranychus urticae; test: Toxicity against adult Tetranychus urticae GSS (two-spotted spider mite) in compound pretreated bean leaves assessed as mortality
[11] = test system: Tetranychus urticae; test: Resistance ratio of LC50 for Tetranychus urticae HOL2 (two-spotted spider mite) harboring mitochondrial G126S Cytb mutation to LC50 for Tetranychus urticae GSS
[12] = test system: Tetranychus urticae; test: Resistance ratio of LC50 for Tetranychus urticae WI (two-spotted spider mite) to LC50 for Tetranychus urticae GSS
[13] = test system: Tetranychus urticae; test: Toxicity against adult Tetranychus urticae HOL4 (two-spotted spider mite) harboring mitochondrial G126S Cytb mutation in compound pretreated bean leaves assessed as mortality
[14] = test system: Tetranychus urticae; test: Toxicity against adult METI-resistant Tetranychus urticae MR-VP (two-spotted spider mite) in compound pretreated bean leaves assessed as mortality
[15] = test system: Tetranychus urticae; test: Resistance ratio of LC50 for METI-resistant Tetranychus urticae MR-VP (two-spotted spider mite) to LC50 for Tetranychus urticae GSS
[16] = test system: Tetranychus urticae; test: Toxicity against adult Tetranychus urticae HOL3 (two-spotted spider mite) harboring mitochondrial P262T Cytb heteroplasmic mutation in compound pretreated bean leaves assessed as mortality
[17] = test system: Tetranychus urticae; test: Toxicity against adult bifenazate-resistant Tetranychus urticae BEL1 (two-spotted spider mite) harboring mitochondrial P262T Cytb fixed mutation in compound pretreated bean leaves assessed as mortality; details: BEL-1
[18] = test system: Tetranychus urticae; test: Toxicity against adult bifenazate-resistant Tetranychus urticae BR-VL (two-spotted spider mite) harboring mitochondrial G126S, S141F and D161G Cytb mutation in compound pretreated bean leaves assessed as mortality
[19] = test system: Tetranychus urticae; test: Resistance ratio of LC50 for bifenazate-susceptible Tetranychus urticae LS-VL (two-spotted spider mite) to LC50 for Tetranychus urticae GSS
[20] = test system: Tetranychus urticae; test: Toxicity against adult bifenazate-susceptible Tetranychus urticae LS-VL (two-spotted spider mite) in compound pretreated bean leaves assessed as mortality
[21] = test system: Tetranychus urticae; test: Toxicity against adult Tetranychus urticae MR-VL (two-spotted spider mite) in compound pretreated bean leaves assessed as mortality
[22] = test system: Tetranychus urticae; test: Toxicity against adult Tetranychus urticae BR-VL (two-spotted spider mite) in bean leaves assessed as mortality treated 24 hr after 2000 mg/L cytochrome P450 monoxygenase inhibitor, PBO application
[23] = test system: Tetranychus urticae; test: Toxicity against adult Tetranychus urticae BEL1 (two-spotted spider mite) in bean leaves assessed as mortality treated 24 hr after 2000 mg/L esterase inhibitor, DEF application; details: BEL-1, 24 h
[24] = test system: Tetranychus urticae; test: Toxicity against adult Tetranychus urticae GSS (two-spotted spider mite) in bean leaves assessed as mortality treated 24 hr after 1000 mg/L esterase inhibitor, DEF application
[25] = test system: Tetranychus urticae; test: Synergism ratio of LC50 for adult Tetranychus urticae BEL-1 (two-spotted spider mite) to LC50 for adult Tetranychus urticae BEL-1 in presence of 2000 mg/L esterase inhibitor, DEF application
[26] = test system: Tetranychus urticae; test: Toxicity against adult Tetranychus urticae GSS (two-spotted spider mite) in bean leaves assessed as mortality treated 24 hr after 2000 mg/L cytochrome P450 monoxygenase inhibitor, PBO application
[27] = test system: Tetranychus urticae; test: Toxicity against adult Tetranychus urticae BEL1 (two-spotted spider mite) in bean leaves assessed as mortality treated 24 hr after 2000 mg/L GST inhibitor, DEM application; details: BEL-1, 24 h
[28] = test system: Tetranychus urticae; test: Toxicity against female adult Tetranychus urticae (two-spotted spider mite) F1 progeny generated from reciprocal cross between female GSS and male BEL1 in compound pretreated bean leaves assesed as mortality
[29] = test system: Tetranychus urticae; test: Synergism ratio of LC50 for adult Tetranychus urticae GSS (two-spotted spider mite) to LC50 for adult Tetranychus urticae GSS in presence of 2000 mg/L GST inhibitor, DEM application
[30] = test system: Tetranychus urticae; test: Toxicity against adult Tetranychus urticae BEL1 (two-spotted spider mite) in bean leaves assessed as mortality treated 24 hr after 2000 mg/L cytochrome P450 monoxygenase inhibitor, PBO application; details: BEL-1, 24 h
[31] = test system: Tetranychus urticae; test: Synergism ratio of LC50 for adult Tetranychus urticae GSS (two-spotted spider mite) to LC50 for adult Tetranychus urticae GSS in presence of 1000 mg/L esterase inhibitor, DEF application
[32] = test system: Tetranychus urticae; test: Toxicity against adult Tetranychus urticae GSS (two-spotted spider mite) in bean leaves assessed as mortality treated 24 hr after 2000 mg/L GST inhibitor, DEM application
[33] = test system: Tetranychus urticae; test: Synergism ratio of LC50 for adult Tetranychus urticae BR-VL (two-spotted spider mite) to LC50 for adult Tetranychus urticae BR-VL in presence of 2000 mg/L esterase inhibitor, DEF application
[34] = test system: Tetranychus urticae; test: Synergism ratio of LC50 for adult Tetranychus urticae BR-VL (two-spotted spider mite) to LC50 for adult Tetranychus urticae BR-VL in presence of 2000 mg/L cytochrome P450 monoxygenase inhibitor, PBO
[35] = test system: Tetranychus urticae; test: Toxicity against female adult Tetranychus urticae (two-spotted spider mite) F1 progeny generated from reciprocal cross between female BEL1 and male GSS in compound pretreated bean leaves assesed as mortality
[36] = test system: Tetranychus urticae; test: Toxicity against adult Tetranychus urticae BR-VL (two-spotted spider mite) in bean leaves assessed as mortality treated 24 hr after 2000 mg/L GST inhibitor, DEM application
[37] = test system: Tetranychus urticae; test: Synergism ratio of LC50 for adult Tetranychus urticae BEL-1 (two-spotted spider mite) to LC50 for adult Tetranychus urticae BEL-1 in presence of 2000 mg/L GST inhibitor, DEM application
[38] = test system: Tetranychus urticae; test: Synergism ratio of LC50 for adult Tetranychus urticae GSS (two-spotted spider mite) to LC50 for adult Tetranychus urticae GSS in presence of 2000 mg/L cytochrome P450 monoxygenase inhibitor, PBO
[39] = test system: Tetranychus urticae; test: Toxicity against female adult Tetranychus urticae (two-spotted spider mite) F1 progeny generated from reciprocal cross between female GSS and male BR-VL in compound pretreated bean leaves assesed as mortality
[40] = test system: Tetranychus urticae; test: Synergism ratio of LC50 for adult Tetranychus urticae BEL-1 (two-spotted spider mite) to LC50 for adult Tetranychus urticae BEL-1 in presence of 2000 mg/L cytochrome P450 monoxygenase inhibitor, PBO
[41] = test system: Tetranychus urticae; test: Toxicity against female adult Tetranychus urticae (two-spotted spider mite) F1 progeny generated from reciprocal cross between female BR-VL and male GSS in compound pretreated bean leaves assesed as mortality
[42] = test system: Tetranychus urticae; test: Toxicity against adult Tetranychus urticae BR-VL (two-spotted spider mite) in bean leaves assessed as mortality treated 24 hr after 2000 mg/L esterase inhibitor, DEF application
[43] = test system: Tetranychus urticae; test: Synergism ratio of LC50 for adult Tetranychus urticae BR-VL (two-spotted spider mite) to LC50 for adult Tetranychus urticae BR-VL in presence of 2000 mg/L GST inhibitor, DEM application

Work on COc1ccc(-c2ccccc2)cc1NNC(=O)OC(C)C [BIFENAZATE] yielded a RatioLC50 [1] greater than 2780, a RatioLC50 [2] greater than 2780 and an LC50 [3] of 43.4 µg/mL (≈ 144 µM). It also gave a RatioLC50 [4] greater than 2780, a RatioLC50 [5] greater than 2780 and an LC50 [6] of 8.7 µg/mL (≈ 29 µM). The RatioLC50 [7] was greater than 2780, the RatioLC50 [8] was 2.9 and the LC50 [9] was greater than 10000 µg/mL. The LC50 [10] was 3.6 µg/mL (≈ 12 µM), the RatioLC50 [11] was 12.1 and the RatioLC50 [12] was 2.4. For the same compound, the LC50 [13] was greater than 10000 µg/mL, the LC50 [14] was 7.3 µg/mL (≈ 24.3 µM) and the RatioLC50 [15] was 2. It also gave an LC50 [16] greater than 10000 µg/mL, an LC50 [17] greater than 10000 µg/mL and an LC50 [18] greater than 10000 µg/mL. It also gave a RatioLC50 [19] of 0.4, an LC50 [20] of 1.6 µg/mL (≈ 5.33 µM) and an LC50 [21] of 10.5 µg/mL (≈ 35 µM).
With CCCCCCCCCCCCC1=C(OC(C)=O)C(=O)c2ccccc2C1=O [ACEQUINOCYL] the LC50 [22] was 209 µg/mL (≈ 544 µM), the RatioLC50 [1] was 0.8 and the LC50 [23] was 450 µg/mL (≈ 1170 µM). The LC50 [24] was 9.9 µg/mL (≈ 25.7 µM), the RatioLC50 [25] was 1.2 and the LC50 [26] was 5 µg/mL (≈ 13 µM). It also gave a RatioLC50 [2] of 0.9, an LC50 [3] of 11.2 µg/mL (≈ 29.1 µM) and an LC50 [27] of 484 µg/mL (≈ 1260 µM). It also gave an LC50 [28] of 26.2 µg/mL (≈ 68.1 µM), a RatioLC50 [29] of 1.4 and a RatioLC50 [4] of 48.5. For the same compound, the LC50 [30] was 79.4 µg/mL (≈ 206 µM), the RatioLC50 [31] was 1.1 and the RatioLC50 [5] was 11.1. It also gave an LC50 [32] of 8.3 µg/mL (≈ 21.6 µM), a RatioLC50 [33] of 1.1 and an LC50 [6] of 26.5 µg/mL (≈ 68.9 µM). The RatioLC50 [34] was 5.6, the RatioLC50 [7] was 105 and the LC50 [35] was 535 µg/mL (≈ 1390 µM). The LC50 [36] was 782 µg/mL (≈ 2030 µM), the RatioLC50 [8] was 1.4 and the RatioLC50 [37] was 1.1. It also gave an LC50 [9] of 9.4 µg/mL (≈ 24.4 µM), an LC50 [10] of 11.3 µg/mL (≈ 29.4 µM) and a RatioLC50 [11] of 1. For the same compound, the RatioLC50 [12] was 2.3, the LC50 [13] was 10.2 µg/mL (≈ 26.5 µM) and the LC50 [14] was 30.5 µg/mL (≈ 79.3 µM). For the same compound, the RatioLC50 [38] was 2.26, the LC50 [39] was 22.3 µg/mL (≈ 58 µM) and the RatioLC50 [15] was 2.7. It also gave an LC50 [16] of 126 µg/mL (≈ 328 µM), an LC50 [17] of 548 µg/mL (≈ 1430 µM) and a RatioLC50 [40] of 6.9. For the same compound, the LC50 [18] was 1180 µg/mL (≈ 3070 µM), the LC50 [41] was 1200 µg/mL (≈ 3120 µM) and the LC50 [42] was 1060 µg/mL (≈ 2760 µM). For the same compound, the RatioLC50 [19] was 0.9, the LC50 [20] was 10.7 µg/mL (≈ 27.8 µM) and the LC50 [21] was 15.8 µg/mL (≈ 41.1 µM). For the same compound, the RatioLC50 [43] was 1.5.
Work on CO/C=C(/C(=O)OC)c1ccccc1COc1cc(C(F)(F)F)nc(OC(C)C)n1 [FLUACRYPYRIM] yielded an LC50 [22] greater than 10000 µg/mL, a RatioLC50 [1] greater than 1515 and an LC50 [23] greater than 10000 µg/mL. The LC50 [24] was 4.2 µg/mL (≈ 9.85 µM), the LC50 [26] was 3.8 µg/mL (≈ 8.91 µM) and the RatioLC50 [2] was greater than 1515. For the same compound, the LC50 [3] was greater than 10000 µg/mL, the LC50 [27] was greater than 10000 µg/mL and the LC50 [28] was greater than 10000 µg/mL. The RatioLC50 [29] was 0.5, the RatioLC50 [4] was greater than 1515 and the LC50 [30] was greater than 10000 µg/mL. For the same compound, the RatioLC50 [31] was 1.6, the RatioLC50 [5] was greater than 1515 and the LC50 [32] was 12.4 µg/mL (≈ 29.1 µM). It also gave an LC50 [6] of 3 µg/mL (≈ 7.04 µM), a RatioLC50 [7] greater than 1515 and an LC50 [35] greater than 10000 µg/mL. It also gave an LC50 [36] greater than 10000 µg/mL, a RatioLC50 [8] of 4.4 and an LC50 [9] greater than 10000 µg/mL. It also gave an LC50 [10] of 6.6 µg/mL (≈ 15.5 µM), a RatioLC50 [11] greater than 1515 and a RatioLC50 [12] of 0.5. It also gave an LC50 [13] greater than 10000 µg/mL, an LC50 [14] greater than 10000 µg/mL and a RatioLC50 [38] of 1.7. For the same compound, the LC50 [39] was greater than 10000 µg/mL, the RatioLC50 [15] was greater than 1515 and the LC50 [16] was greater than 10000 µg/mL. It also gave an LC50 [17] greater than 10000 µg/mL, an LC50 [18] greater than 10000 µg/mL and an LC50 [41] greater than 10000 µg/mL. For the same compound, the LC50 [42] was greater than 10000 µg/mL, the RatioLC50 [19] was greater than 1515 and the LC50 [20] was greater than 10000 µg/mL. The LC50 [21] was 28.8 µg/mL (≈ 67.5 µM).
